Source: paper PMC3119665, “A New Drug Design Targeting the Adenosinergic System for Huntington's Disease” (PLoS ONE, 2011)

Legend:
[1] = tested on: Adrenergic α 1, Non-Selective; assay: Radioligand binding panel (Table S1); set-up: species or system rat; settings: 10 μM T1-11, n 2
Angiotensin AT2 = target: T1, Angiotensin AT2 (Homo sapiens, UniProt P50052); assay: Radioligand binding panel (Table S1); settings: 10 μM T1-11, n 2
T1 construct: purchased MDS Pharma Services Taiwan

Chemokine CCR1 = target: T2, Chemokine CCR1 (Homo sapiens, UniProt P32246); assay: Radioligand binding panel (Table S1); settings: 10 μM T1-11, n 2
T2 construct: purchased MDS Pharma Services Taiwan

Muscarinic M3 = target: T3, Muscarinic M3 (Homo sapiens, UniProt P20309); assay: Radioligand binding panel (Table S1); settings: 10 μM T1-11, n 2
T3 construct: purchased MDS Pharma Services Taiwan

Neuromedin U NMU2 = target: T4, Neuromedin U NMU2 (Homo sapiens, UniProt Q9GZQ4); assay: Radioligand binding panel (Table S1); settings: 10 μM T1-11, n 2
T4 construct: purchased MDS Pharma Services Taiwan

Neurotensin NT 1 = target: T5, Neurotensin NT 1 (Homo sapiens, UniProt P30989); assay: Radioligand binding panel (Table S1); settings: 10 μM T1-11, n 2
T5 construct: purchased MDS Pharma Services Taiwan

[2] = tested on: Platelet-Derived Growth Factor (PDGF); assay: Radioligand binding panel (Table S1); set-up: species or system mouse; settings: 10 μM T1-11, n 2
[3] = target: T6, Serotonin (5-Hydroxytryptamine) 5-HT7 (Homo sapiens, UniProt P34969); assay: Radioligand binding panel (Table S1); settings: 10 μM T1-11, n 2
T6 construct: purchased MDS Pharma Services Taiwan

[4] = target: T7, Transporter, Norepinephrine (NET) (Homo sapiens, UniProt P23975); assay: Radioligand binding panel (Table S1); settings: 10 μM T1-11, n 2
T7 construct: purchased MDS Pharma Services Taiwan

R6/2 mice = assay: Hemodynamic examination of R6/2 mice; assay type: in vivo; settings: subcutaneous Alzet minipump for 48 h, 125 µg/mouse/day
Description: Heart rates and blood pressure of conscious and anesthetized mice were measured using a blood pressure monitor (model MK-2000; Muromachi Kikai, Tokyo, Japan) between 10 AM to 6 PM. Values of 12–18 successful readings per mouse were used to determine the blood pressure.
(A) T1-11 (125 µg/mouse/day) or vehicle (CON) was administrated subcutaneously to the indicated mice of 7 weeks old using ALZET osmotic minipumps for 6 weeks. Rotarod performance was assessed. (B, C) T1-11 (125 µg/mouse/day) was administrated subcutaneously to the indicated mice of 9 weeks old using ALZET osmotic minipumps for 48 h. Heart rate (B) and blood pressure (C) were determined by a tail-cuff method. * p<0.05. *** p<0.005. (TIF) Click here for additional data file.

T2 sequence (P32246 whole entry): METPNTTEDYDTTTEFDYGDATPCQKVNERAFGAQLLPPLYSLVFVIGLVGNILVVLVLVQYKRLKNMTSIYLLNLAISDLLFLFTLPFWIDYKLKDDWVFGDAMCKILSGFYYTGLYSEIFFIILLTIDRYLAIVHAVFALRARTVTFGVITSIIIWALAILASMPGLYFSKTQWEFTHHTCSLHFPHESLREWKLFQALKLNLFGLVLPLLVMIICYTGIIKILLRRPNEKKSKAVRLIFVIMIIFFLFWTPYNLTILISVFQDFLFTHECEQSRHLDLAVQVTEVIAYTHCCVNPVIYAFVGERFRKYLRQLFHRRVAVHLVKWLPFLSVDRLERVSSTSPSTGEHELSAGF
T5 sequence (P30989 whole entry): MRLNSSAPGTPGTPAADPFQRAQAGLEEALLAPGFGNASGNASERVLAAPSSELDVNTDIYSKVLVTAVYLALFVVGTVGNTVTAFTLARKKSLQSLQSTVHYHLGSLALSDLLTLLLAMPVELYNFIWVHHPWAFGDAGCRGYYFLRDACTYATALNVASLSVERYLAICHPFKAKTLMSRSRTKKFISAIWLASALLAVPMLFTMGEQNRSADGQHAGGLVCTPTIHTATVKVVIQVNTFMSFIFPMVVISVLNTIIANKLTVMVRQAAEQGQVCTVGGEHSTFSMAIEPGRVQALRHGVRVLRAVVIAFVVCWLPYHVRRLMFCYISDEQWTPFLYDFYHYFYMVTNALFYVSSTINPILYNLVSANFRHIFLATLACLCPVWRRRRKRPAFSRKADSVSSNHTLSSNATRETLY
T6 sequence (P34969 whole entry): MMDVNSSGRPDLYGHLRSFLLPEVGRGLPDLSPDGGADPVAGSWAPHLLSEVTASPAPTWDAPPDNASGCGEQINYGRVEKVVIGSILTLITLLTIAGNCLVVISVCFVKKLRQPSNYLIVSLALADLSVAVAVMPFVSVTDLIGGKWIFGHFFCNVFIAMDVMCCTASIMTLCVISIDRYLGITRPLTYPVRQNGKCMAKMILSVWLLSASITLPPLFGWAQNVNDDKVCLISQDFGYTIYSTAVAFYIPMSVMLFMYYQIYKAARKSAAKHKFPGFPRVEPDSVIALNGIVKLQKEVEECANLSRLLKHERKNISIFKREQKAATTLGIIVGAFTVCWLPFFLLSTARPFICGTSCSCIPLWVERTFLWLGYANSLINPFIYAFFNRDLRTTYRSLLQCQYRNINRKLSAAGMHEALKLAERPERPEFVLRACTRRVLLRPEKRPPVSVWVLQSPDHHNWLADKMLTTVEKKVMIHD
T4 sequence (Q9GZQ4 whole entry): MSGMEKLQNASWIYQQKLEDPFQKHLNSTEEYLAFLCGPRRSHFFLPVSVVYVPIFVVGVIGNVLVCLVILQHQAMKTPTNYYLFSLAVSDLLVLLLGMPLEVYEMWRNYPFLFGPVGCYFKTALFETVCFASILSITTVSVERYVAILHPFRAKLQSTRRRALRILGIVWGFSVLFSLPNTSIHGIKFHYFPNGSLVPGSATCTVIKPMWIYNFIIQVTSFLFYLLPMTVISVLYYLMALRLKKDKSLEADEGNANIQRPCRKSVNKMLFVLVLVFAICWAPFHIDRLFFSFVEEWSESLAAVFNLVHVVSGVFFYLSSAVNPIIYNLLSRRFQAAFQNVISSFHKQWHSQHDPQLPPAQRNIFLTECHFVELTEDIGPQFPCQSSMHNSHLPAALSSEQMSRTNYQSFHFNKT
T3 sequence (P20309 whole entry): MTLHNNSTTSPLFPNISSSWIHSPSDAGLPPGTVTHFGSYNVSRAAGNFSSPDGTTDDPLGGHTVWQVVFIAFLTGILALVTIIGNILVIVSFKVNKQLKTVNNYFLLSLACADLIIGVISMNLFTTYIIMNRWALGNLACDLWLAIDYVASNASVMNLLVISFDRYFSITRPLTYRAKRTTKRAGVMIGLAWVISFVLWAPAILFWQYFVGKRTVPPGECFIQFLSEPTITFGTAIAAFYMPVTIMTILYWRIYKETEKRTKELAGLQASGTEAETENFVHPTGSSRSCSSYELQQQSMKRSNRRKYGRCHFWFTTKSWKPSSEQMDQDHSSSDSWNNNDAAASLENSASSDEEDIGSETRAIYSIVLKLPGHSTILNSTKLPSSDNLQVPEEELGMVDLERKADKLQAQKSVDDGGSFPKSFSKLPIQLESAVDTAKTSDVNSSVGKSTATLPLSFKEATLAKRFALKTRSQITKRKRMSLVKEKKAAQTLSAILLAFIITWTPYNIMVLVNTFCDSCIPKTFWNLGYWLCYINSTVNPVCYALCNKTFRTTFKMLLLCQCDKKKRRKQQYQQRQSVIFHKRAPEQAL
T7 sequence (P23975 whole entry): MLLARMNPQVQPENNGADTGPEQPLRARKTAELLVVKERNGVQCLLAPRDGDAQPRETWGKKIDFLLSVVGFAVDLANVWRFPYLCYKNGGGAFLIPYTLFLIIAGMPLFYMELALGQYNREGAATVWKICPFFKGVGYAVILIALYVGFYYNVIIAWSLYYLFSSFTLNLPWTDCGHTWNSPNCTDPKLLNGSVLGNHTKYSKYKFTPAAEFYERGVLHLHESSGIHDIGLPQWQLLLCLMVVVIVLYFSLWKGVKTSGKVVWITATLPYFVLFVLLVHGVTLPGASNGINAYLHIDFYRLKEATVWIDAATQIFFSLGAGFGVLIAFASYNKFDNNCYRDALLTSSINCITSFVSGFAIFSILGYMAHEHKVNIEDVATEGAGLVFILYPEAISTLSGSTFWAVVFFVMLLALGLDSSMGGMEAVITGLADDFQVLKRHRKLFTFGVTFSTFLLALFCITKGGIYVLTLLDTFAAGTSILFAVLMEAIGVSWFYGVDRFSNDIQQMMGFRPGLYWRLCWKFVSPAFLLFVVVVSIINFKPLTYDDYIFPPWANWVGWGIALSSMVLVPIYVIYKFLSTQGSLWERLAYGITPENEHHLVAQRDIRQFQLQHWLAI
T1 sequence (P50052 whole entry): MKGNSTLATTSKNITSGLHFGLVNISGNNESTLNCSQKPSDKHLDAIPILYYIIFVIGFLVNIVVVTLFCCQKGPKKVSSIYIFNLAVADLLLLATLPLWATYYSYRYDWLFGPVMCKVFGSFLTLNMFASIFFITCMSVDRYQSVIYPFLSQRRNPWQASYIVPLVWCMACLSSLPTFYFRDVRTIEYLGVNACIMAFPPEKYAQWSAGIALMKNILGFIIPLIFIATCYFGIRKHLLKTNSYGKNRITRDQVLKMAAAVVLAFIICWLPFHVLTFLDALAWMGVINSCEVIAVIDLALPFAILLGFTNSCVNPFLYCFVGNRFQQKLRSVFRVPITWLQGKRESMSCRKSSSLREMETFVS

SMILES: OC[C@H]1O[C@@H](n2cnc3c(NCc4ccc(O)cc4)ncnc32)[C@H](O)[C@@H]1O [T1-11, N ^6-(4-hydroxybenzyl)adenine riboside]
- % Inhibition [1]: -3%
- inhibition at 10 µM (Angiotensin AT2): 3%
- inhibition at 10 µM (Chemokine CCR1): -3%
- inhibition at 10 µM (Muscarinic M3): -6%
- inhibition at 10 µM (Neuromedin U NMU2): 5%
- inhibition at 10 µM (Neurotensin NT 1): 11%
- % Inhibition [2]: -4%
- inhibition at 10 µM [3]: 2%
- inhibition at 10 µM [4]: 6%
- Blood pressure (R6/2 mice): did not change the blood pressure of R6/2 mice
- Heart rate (R6/2 mice): did not affect their heart rate and blood pressure
